Assay results published in patent publication US4110327A, “2,3 Diketo-piperazinocarbonylamino alkanoic acids and derivatives” (Toyama Chemical Co., Ltd., priority 1974, dated 1978).

Assays:
Format in all cases: cell-based
[1] = tested on: Escherichia coli NIHJ; experiment: MIC against standard strain, plate method; conditions: unit assumed
Procedure, shortened: (§1)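 MIC values come from the plate method on heart infusion agar at pH 7.4, with each plate receiving 10^4 cells from a 10^6 cells/ml suspension.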

[2] = tested on: Klebsiella pneumoniae; experiment: MIC against standard strain, plate method; conditions: unit assumed
Procedure, shortened: as §1

[3] = tested on: Proteus vulgaris 3027; experiment: MIC against standard strain, plate method; conditions: Proteus vulgaris 3027, standard strain; unit assumed
Procedure, shortened: as §1

[4] = tested on: Pseudomonas aeruginosa I.F.O.; experiment: MIC against standard strain, plate method; conditions: unit assumed
Procedure, shortened: as §1

[5] = tested on: Staphylococcus aureus 209p; experiment: MIC against standard strain, plate method; conditions: unit assumed
Procedure, shortened: as §1

[6] = tested on: Staphylococcus aureus; experiment: MIC against clinical isolates; conditions: unit assumed
[7] = tested on: Escherichia coli; experiment: MIC against clinical isolates; conditions: unit assumed
[8] = tested on: Pseudomonas aeruginosa; experiment: MIC against clinical isolates; conditions: unit assumed
[9] = tested on: Klebsiella pneumoniae; experiment: MIC against clinical isolates; conditions: unit assumed
[10] = tested on: Proteus mirabilis; experiment: MIC against clinical isolates; conditions: clinical isolate, unit assumed
[11] = tested on: Proteus morganii; experiment: MIC against clinical isolates; conditions: clinical isolate, unit assumed
[12] = tested on: Proteus vulgaris; experiment: MIC against clinical isolates; conditions: clinical isolate, unit assumed
[13] = tested on: Proteus rettgeri; experiment: MIC against clinical isolates; conditions: clinical isolate, unit assumed

Measured: MIC

CC(=O)OCC1=C(C(=O)O)N2C(=O)C(NC(=O)C(NC(=O)N3CCN(C)C(=O)C3=O)c3ccccc3)C2SC1 (single isomer, unassigned) [compound 60]
50 µg/mL: [6]; clinical isolate F-5 | [8]; clinical isolate GN 82 | [8]; clinical isolate GN 163 | [8]; clinical isolate GN 244 | [8]; clinical isolate GN 376 | [8]; clinical isolate GN 383 | [8]; clinical isolate GN 1091 | [8]; clinical isolate GN 2987
6.25 µg/mL: [7]; clinical isolate GN 3435 | [7]; clinical isolate GN 3481 | [7]; clinical isolate K-1 | [9]; clinical isolate GN 917 | [13]
200 µg/mL: [7]; clinical isolate K-3 | [8]; clinical isolate GN 1035 | [8]; clinical isolate S-1
100 µg/mL: [7]; clinical isolate GN 3465 | [8]; clinical isolate GN 2565 | [8]; clinical isolate S-2 | [8]; clinical isolate S-3 | [8]; clinical isolate S-4
12.5 µg/mL: [7]; clinical isolate GN 3452 | [7]; clinical isolate K-2 | [8]; clinical isolate GN 221
25 µg/mL: [4] | [7]; clinical isolate K-4 | [9]; clinical isolate GN 4081 | [9]; clinical isolate GN 4117
0.79 µg/mL: [5]
< 0.1 µg/mL: [1]
> 200 µg/mL: [7]; clinical isolate GN 3611
3.13 µg/mL: [2] | [3] | [6]; clinical isolate F-1 | [10] | [11]
0.78 µg/mL: [6]; clinical isolate F-2 | [6]; clinical isolate MS 8596 | [6]; clinical isolate MS 8619 | [6]; clinical isolate MS 8713
1.56 µg/mL: [6]; clinical isolate F-3 | [6]; clinical isolate F-4 | [6]; clinical isolate MS 8588 | [6]; clinical isolate MS 8684 | [12]

CC(=O)OCC1=C(C(=O)O)N2C(=O)[C@@H](NC(=O)[C@H](N)c3ccccc3)[C@H]2SC1 [Sodium Cephaloglycin, SodiumCephaloglycin, reference compound]
1.56 µg/mL: [6]; clinical isolate F-2 | [6]; clinical isolate F-3 | [6]; clinical isolate MS 8596 | [6]; clinical isolate MS 8619 | [6]; clinical isolate MS 8684 | [7]; clinical isolate GN 3435 | [7]; clinical isolate K-1 | [7]; clinical isolate K-2 | [9]; clinical isolate GN 917 | [11]
12.5 µg/mL: [7]; clinical isolate GN 3465 | [7]; clinical isolate K-4
100 µg/mL: [2]
3.13 µg/mL: [6]; clinical isolate F-1 | [6]; clinical isolate F-4 | [6]; clinical isolate MS 8588 | [6]; clinical isolate MS 8713 | [7]; clinical isolate GN 3452 | [7]; clinical isolate GN 3481 | [9]; clinical isolate GN 4081 | [9]; clinical isolate GN 4117 | [10]
> 200 µg/mL: [4] | [8]; clinical isolate GN 82 | [8]; clinical isolate GN 163 | [8]; clinical isolate GN 221 | [8]; clinical isolate GN 244 | [8]; clinical isolate GN 376 | [8]; clinical isolate GN 383 | [8]; clinical isolate GN 1035 | [8]; clinical isolate GN 1091 | [8]; clinical isolate GN 2565 | [8]; clinical isolate GN 2987 | [8]; clinical isolate S-1 | [8]; clinical isolate S-2 | [8]; clinical isolate S-3 | [8]; clinical isolate S-4
50 µg/mL: [12] | [13]
< 1.57 µg/mL: [1] | [3] | [5]
25 µg/mL: [6]; clinical isolate F-5 | [7]; clinical isolate GN 3611 | [7]; clinical isolate K-3

Cc1nnc(SCC2=C(C(=O)O)N3C(=O)C(NC(=O)C(NC(=O)N4CCN(C)C(=O)C4=O)c4ccccc4)C3SC2)s1 (single isomer, unassigned) [compound 62]
3.13 µg/mL: [3] | [6]; clinical isolate F-1 | [11] | [12]
0.78 µg/mL: [6]; clinical isolate F-2 | [6]; clinical isolate MS 8596 | [6]; clinical isolate MS 8619
< 0.1 µg/mL: [1]
100 µg/mL: [8]; clinical isolate GN 82 | [8]; clinical isolate GN 244 | [8]; clinical isolate GN 376 | [8]; clinical isolate GN 383 | [8]; clinical isolate GN 1091 | [8]; clinical isolate GN 2565
1.57 µg/mL: [2]
200 µg/mL: [7]; clinical isolate GN 3611 | [7]; clinical isolate K-3 | [8]; clinical isolate GN 1035 | [8]; clinical isolate S-1 | [8]; clinical isolate S-2 | [8]; clinical isolate S-3 | [8]; clinical isolate S-4
50 µg/mL: [4] | [8]; clinical isolate GN 163 | [8]; clinical isolate GN 221 | [8]; clinical isolate GN 2987
6.25 µg/mL: [7]; clinical isolate GN 3435 | [7]; clinical isolate GN 3452 | [7]; clinical isolate GN 3481 | [7]; clinical isolate K-1 | [9]; clinical isolate GN 917 | [10] | [13]
1.56 µg/mL: [6]; clinical isolate F-3 | [6]; clinical isolate F-4 | [6]; clinical isolate MS 8588 | [6]; clinical isolate MS 8684 | [6]; clinical isolate MS 8713
0.79 µg/mL: [5]
12.5 µg/mL: [6]; clinical isolate F-5 | [7]; clinical isolate K-2 | [7]; clinical isolate K-4 | [9]; clinical isolate GN 4081
25 µg/mL: [7]; clinical isolate GN 3465 | [9]; clinical isolate GN 4117
